Laboratory results from patent US20040018941A1, “Fused-benzene derivatives of thiouracil, herbicidal and desiccant compositions contaning them” (ISHIHARA SANGYO KAISHA, LTD., priority 2002, published 2004).

Experiments:
Format in all cases: in vivo
Conditions in all cases: rating 0-100 (0 no damage, 100 complete death), 14 days after application
[1] = test system: johnsongrass (Sorghum halepense, SORHA); test: Pre-emerge herbicidal activity, greenhouse screen, SORHA
Source text: (§1) A standard greenhouse herbicide activity screening system was used to evaluate the herbicidal efficacy and crop safety of these test compounds. Seven broadleaf weed species including redroot pigweed (Amaranthus retroflexus, AMARE), velvetleaf (Abutilon theophrasti, ABUTH), sicklepod (Cassia obtusifolia, CASOB), ivyleaf morningglory (Ipomoea hederacea, IPOHE), lambsquarters (Chenopodium album, CHEAL), common ragweed (Ambrosia artemisiifolia L., AMBEL), and cocklebur (Xanthium strumarium, XANST) were used as test species. Four grass weed species including green foxtail (Setaria viridis, SETVI), barnyardgrass (Echinochloa crus-galli, ECHCG), johnsongrass (Sorghum halepense, SORHA), and large crabgrass (Digitaria sanguinalis, DIGSA) were also used. In addition, three crop species, field corn (Zea mays L., var. Dekalb 527, CORN), soybean (Glycine max L., var. Pella 86, SOY), and upland rice (Oryza sp., var. Tebonnet, RICE) were included.
(§2) All plants were grown in 10 cm square plastic pots which were filled with a sandy loam soil mix. For pre-emerge tests, seeds were planted one day prior to application of the test compounds. For post-emerge tests, seeds were planted 8-21 days prior to the test to allow emergence and good foliage development prior to application of the test substances. At the time of the post-emerge application, plants of all species were usually at the 2-3 leaf stage of development.
(§3) All test compounds were dissolved in acetone and applied to the test units in a volume of 187 l/ha. Test materials were applied at rates ranging from 15 g ai/ha to 1000 g ai/ha using a track sprayer equipped with a TJ8001 E even flow flat fan spray nozzle. Plants were arranged on a shelf so that the top of the canopy (post-emerge) or top of the soil surface (pre-emerge) was 40-45 cm below the nozzle. Pressurized air was used to force the test solution through the nozzle as it was mechanically advanced over the top of all test plants/pots. This application simulates a typical commercial field herbicide application.
(§4) In the post-emerge test, a commercial non-ionic surfactant was also included (0.25% v/v) to enhance wetting of the leaf surfaces of target plants. Immediately after application, test units of the pre-emerge applications were watered at the soil surface to incorporate the test materials.
(§5) At 14 days after application of the test materials, phytotoxicity ratings were recorded. A rating scale of 0-100 was used as previously described in Research Methods in Weed Science, 2nd edition, B. Truelove, Ed., Southern Weed Science Society, Auburn University, Auburn, Ala., 1977. Briefly, “0” corresponds to no damage and “100” corresponds to complete death of all plants in the test unit. This scale was used both to determine efficacy against weed species and damage to crop species. Herbicide activity data for various compounds of this invention, which are shown by compound No. in Tables 1-7, are shown in Tables 8 and 9.

[2] = test system: large crabgrass (Digitaria sanguinalis, DIGSA); test: Post-emerge herbicidal activity, greenhouse screen, DIGSA
Source text: as §1, §2, §3, §4, §5

[3] = test system: ivyleaf morningglory (Ipomoea hederacea, IPOHE); test: Pre-emerge herbicidal activity, greenhouse screen, IPOHE
Source text: as §1, §2, §3, §4, §5

[4] = test system: velvetleaf (Abutilon theophrasti, ABUTH); test: Post-emerge herbicidal activity, greenhouse screen, ABUTH
Source text: as §1, §2, §3, §4, §5

[5] = test system: lambsquarters (Chenopodium album, CHEAL); test: Post-emerge herbicidal activity, greenhouse screen, CHEAL
Source text: as §1, §2, §3, §4, §5

[6] = test system: barnyardgrass (Echinochloa crus-galli, ECHCG); test: Post-emerge herbicidal activity, greenhouse screen, ECHCG
Source text: as §1, §2, §3, §4, §5

[7] = test system: soybean (Glycine max L., var. Pella 86, SOY); test: Pre-emerge crop damage, greenhouse screen, SOY
Source text: as §1, §2, §3, §4, §5

[8] = test system: ivyleaf morningglory (Ipomoea hederacea, IPOHE); test: Post-emerge herbicidal activity, greenhouse screen, IPOHE
Source text: as §1, §2, §3, §4, §5

[9] = test system: green foxtail (Setaria viridis, SETVI); test: Pre-emerge herbicidal activity, greenhouse screen, SETVI
Source text: as §1, §2, §3, §4, §5

[10] = test system: field corn (Zea mays L., var. Dekalb 527, CORN); test: Pre-emerge crop damage, greenhouse screen, CORN
Source text: as §1, §2, §3, §4, §5

[11] = test system: upland rice (Oryza sp., var. Tebonnet, RICE); test: Post-emerge crop damage, greenhouse screen, RICE
Source text: as §1, §2, §3, §4, §5

[12] = test system: field corn (Zea mays L., var. Dekalb 527, CORN); test: Post-emerge crop damage, greenhouse screen, CORN
Source text: as §1, §2, §3, §4, §5

[13] = test system: redroot pigweed (Amaranthus retroflexus, AMARE); test: Post-emerge herbicidal activity, greenhouse screen, AMARE
Source text: as §1, §2, §3, §4, §5

[14] = test system: green foxtail (Setaria viridis, SETVI); test: Post-emerge herbicidal activity, greenhouse screen, SETVI
Source text: as §1, §2, §3, §4, §5

[15] = test system: redroot pigweed (Amaranthus retroflexus, AMARE); test: Pre-emerge herbicidal activity, greenhouse screen, AMARE
Source text: as §1, §2, §3, §4, §5

[16] = test system: common ragweed (Ambrosia artemisiifolia L., AMBEL); test: Post-emerge herbicidal activity, greenhouse screen, AMBEL
Source text: as §1, §2, §3, §4, §5

[17] = test system: sicklepod (Cassia obtusifolia, CASOB); test: Post-emerge herbicidal activity, greenhouse screen, CASOB
Source text: as §1, §2, §3, §4, §5

[18] = test system: large crabgrass (Digitaria sanguinalis, DIGSA); test: Pre-emerge herbicidal activity, greenhouse screen, DIGSA
Source text: as §1, §2, §3, §4, §5

[19] = test system: upland rice (Oryza sp., var. Tebonnet, RICE); test: Pre-emerge crop damage, greenhouse screen, RICE
Source text: as §1, §2, §3, §4, §5

[20] = test system: common ragweed (Ambrosia artemisiifolia L., AMBEL); test: Pre-emerge herbicidal activity, greenhouse screen, AMBEL
Source text: as §1, §2, §3, §4, §5

[21] = test system: johnsongrass (Sorghum halepense, SORHA); test: Post-emerge herbicidal activity, greenhouse screen, SORHA
Source text: as §1, §2, §3, §4, §5

[22] = test system: velvetleaf (Abutilon theophrasti, ABUTH); test: Pre-emerge herbicidal activity, greenhouse screen, ABUTH
Source text: as §1, §2, §3, §4, §5

[23] = test system: sicklepod (Cassia obtusifolia, CASOB); test: Pre-emerge herbicidal activity, greenhouse screen, CASOB
Source text: as §1, §2, §3, §4, §5

[24] = test system: soybean (Glycine max L., var. Pella 86, SOY); test: Post-emerge crop damage, greenhouse screen, SOY
Source text: as §1, §2, §3, §4, §5

[25] = test system: lambsquarters (Chenopodium album, CHEAL); test: Pre-emerge herbicidal activity, greenhouse screen, CHEAL
Source text: as §1, §2, §3, §4, §5

[26] = test system: barnyardgrass (Echinochloa crus-galli, ECHCG); test: Pre-emerge herbicidal activity, greenhouse screen, ECHCG
Source text: as §1, §2, §3, §4, §5

## Cn1c(C(F)(F)F)cc(=O)n(-c2c(F)ccc3nc(C(C)(C)C)oc23)c1=S [Compound 1-5]
[1]; 63 g ai/ha
  Pre-emerge Herbicidal Activity SORHA: 99
[1]; 250 g ai/ha
  Pre-emerge Herbicidal Activity SORHA: 100
[2]; 63 g ai/ha
  Post-emerge Herbicidal Activity DIGSA: 60
[2]; 250 g ai/ha
  Post-emerge Herbicidal Activity DIGSA: 75
[3]; 63 g ai/ha
  Pre-emerge Herbicidal Activity IPOHE: 100
[3]; 250 g ai/ha
  Pre-emerge Herbicidal Activity IPOHE: 100
[4]; 63 g ai/ha
  Post-emerge Herbicidal Activity ABUTH: 100
[4]; 250 g ai/ha
  Post-emerge Herbicidal Activity ABUTH: 100
[5]; 63 g ai/ha
  Post-emerge Herbicidal Activity CHEAL: 95
[5]; 250 g ai/ha
  Post-emerge Herbicidal Activity CHEAL: 100
[6]; 63 g ai/ha
  Post-emerge Herbicidal Activity ECHCG: 100
[6]; 250 g ai/ha
  Post-emerge Herbicidal Activity ECHCG: 100
[7]; 63 g ai/ha
  Pre-emerge Herbicidal Activity SOY (crop damage): 0
[7]; 250 g ai/ha
  Pre-emerge Herbicidal Activity SOY (crop damage): 99
[8]; 63 g ai/ha
  Post-emerge Herbicidal Activity IPOHE: 100
[8]; 250 g ai/ha
  Post-emerge Herbicidal Activity IPOHE: 100
[9]; 63 g ai/ha
  Pre-emerge Herbicidal Activity SETVI: 100
[9]; 250 g ai/ha
  Pre-emerge Herbicidal Activity SETVI: 100
[10]; 63 g ai/ha
  Pre-emerge Herbicidal Activity CORN (crop damage): 85
[10]; 250 g ai/ha
  Pre-emerge Herbicidal Activity CORN (crop damage): 100
[11]; 63 g ai/ha
  Post-emerge Herbicidal Activity RICE (crop damage): 65
[11]; 250 g ai/ha
  Post-emerge Herbicidal Activity RICE (crop damage): 70
[12]; 63 g ai/ha
  Post-emerge Herbicidal Activity CORN (crop damage): 15
[12]; 250 g ai/ha
  Post-emerge Herbicidal Activity CORN (crop damage): 30
[13]; 63 g ai/ha
  Post-emerge Herbicidal Activity AMARE: 99
[13]; 250 g ai/ha
  Post-emerge Herbicidal Activity AMARE: 100
[14]; 63 g ai/ha
  Post-emerge Herbicidal Activity SETVI: 80
[14]; 250 g ai/ha
  Post-emerge Herbicidal Activity SETVI: 85
[15]; 63 g ai/ha
  Pre-emerge Herbicidal Activity AMARE: 100
[15]; 250 g ai/ha
  Pre-emerge Herbicidal Activity AMARE: 100
[16]; 63 g ai/ha
  Post-emerge Herbicidal Activity AMBEL: 90
[16]; 250 g ai/ha
  Post-emerge Herbicidal Activity AMBEL: 100
[17]; 63 g ai/ha
  Post-emerge Herbicidal Activity CASOB: 60
[17]; 250 g ai/ha
  Post-emerge Herbicidal Activity CASOB: 90
[18]; 63 g ai/ha
  Pre-emerge Herbicidal Activity DIGSA: 100
[18]; 250 g ai/ha
  Pre-emerge Herbicidal Activity DIGSA: 100
[19]; 63 g ai/ha
  Pre-emerge Herbicidal Activity RICE (crop damage): 55
[19]; 250 g ai/ha
  Pre-emerge Herbicidal Activity RICE (crop damage): 80
[20]; 63 g ai/ha
  Pre-emerge Herbicidal Activity AMBEL: 99
[20]; 250 g ai/ha
  Pre-emerge Herbicidal Activity AMBEL: 100
[21]; 63 g ai/ha
  Post-emerge Herbicidal Activity SORHA: 55
[21]; 250 g ai/ha
  Post-emerge Herbicidal Activity SORHA: 75
[22]; 63 g ai/ha
  Pre-emerge Herbicidal Activity ABUTH: 100
[22]; 250 g ai/ha
  Pre-emerge Herbicidal Activity ABUTH: 100
[23]; 63 g ai/ha
  Pre-emerge Herbicidal Activity CASOB: 90
[23]; 250 g ai/ha
  Pre-emerge Herbicidal Activity CASOB: 100
[24]; 63 g ai/ha
  Post-emerge Herbicidal Activity SOY (crop damage): 50
[24]; 250 g ai/ha
  Post-emerge Herbicidal Activity SOY (crop damage): 75
[25]; 63 g ai/ha
  Pre-emerge Herbicidal Activity CHEAL: 100
[25]; 250 g ai/ha
  Pre-emerge Herbicidal Activity CHEAL: 100
[26]; 63 g ai/ha
  Pre-emerge Herbicidal Activity ECHCG: 100
[26]; 250 g ai/ha
  Pre-emerge Herbicidal Activity ECHCG: 100
